Publication PMC9959553, “Promising Antifungal Molecules against Mucormycosis Agents Identified from Pandemic Response Box®: In Vitro and In Silico Analyses” (Journal of Fungi, 2023)
Values after ≈ are worked out from the molar mass of the structure shown. Read-outs that look alike come from different tables or passages of the source.

What was measured:
R. oryzae UCP1295 [1] = test: Screening of the Pandemic Response Box library at 5 µM; format: cell-based, Rhizopus oryzae; conditions: for inhibition at 5 µM: Rhizopus arrhizus, UCP1295, 48 h; for Viability Inhibition (XTT): XTT reduction
In short: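 Growth inhibition was read at 600 nm after conidia (2 × 10^5/mL) grew 48 h at 37 °C, 5% CO2, with 5 μM compound in glucose-supplemented (2%), MOPS-buffered RPMI (pH 7.2). Controls were posaconazole at 5 μM and 1% DMSO. The selection cut-off was at least 60% inhibition.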

R. oryzae [2] = test: Antifungal susceptibility testing (broth microdilution, MIC and MFC); format: cell-based, Rhizopus oryzae; conditions: for Selectivity Index (SI), Planktonic Cell: R. oryzae, from CC50 and MIC50 of planktonic cells; for MIC50 / MFC: Rhizopus arrhizus, 48 h; for MIC50: lowest concentration that inhibits 50% of fungal growth; for MFC: subculture in drug-free medium
Description: (§1) The susceptibility of the Rhizopus species to MMV396785 (alexidine), MMV1580844, MMV642550 and MMV019724 was determined using the broth microdilution method, according to EUCAST protocols, with modifications. Posaconazole and amphotericin B were also used as reference antifungal drugs because they are commonly used for the treatment of mucormycosis. […] A standardized suspension of conidia (2 × 10^5/mL) was added to the wells and incubated for 48 h at 37 °C, in a 5% CO2 atmosphere. Fungal growth was analyzed via spectrophotometry readings at 600 nm and cell viability was assessed using the XTT reduction assay. Minimum inhibitory concentration (MIC) of each compound was defined as the lowest concentration that inhibits 50% of fungal growth, because these fungi are highly resistant to antifungal drugs and a reduction in half of their growth is relevant. […] MFC values were defined as the lowest drug concentration able to arrest fungal growth.

R. microsporus = test: as above; format: cell-based, Rhizopus microsporus var. microsporus; conditions: for Selectivity Index (SI), Planktonic Cell: R. microsporus, from CC50 and MIC50 of planktonic cells; for MIC50 / MFC: Rhizopus microsporus, 48 h; for MIC50: lowest concentration that inhibits 50% of fungal growth; for MFC: subculture in drug-free medium
Description: as §1

R. stolonifer = test: as above; format: cell-based, Rhizopus stolonifer; conditions: for Selectivity Index (SI), Planktonic Cell: R. stolonifer, from CC50 and MIC50 of planktonic cells; for MIC50 / MFC: Rhizopus stolonifer, 48 h; for MIC50: lowest concentration that inhibits 50% of fungal growth; for MFC: subculture in drug-free medium
Description: as §1

[3] = tested on: R. microsporus preformed biofilm; test: Preformed biofilm assay; format: cell-based, Rhizopus microsporus; conditions: for Selectivity Index (SI), Preformed Biofilm: R. microsporus, based on biofilm viability parameter
Description: (§2) For the preformed biofilm assay, cells were cultured as described above in the absence of the compounds. […] An additional incubation of 24 h at 37 °C was performed to evaluate the anti-biofilm activity. Evaluation of both biofilm formation and preformed biofilms was performed using three parameters as previously described. Crystal violet, safranin and XTT assays were used to analyze the overall biomass, extracellular matrix and metabolic activity, respectively.

[4] = tested on: R. stolonifer preformed biofilm; test: Preformed biofilm assay; format: cell-based, Rhizopus stolonifer; conditions: for Selectivity Index (SI), Preformed Biofilm: R. stolonifer, based on biofilm viability parameter
Description: as §2

R. oryzae cells = test: Analysis of fungal cell alterations with fluorescent staining; format: cell-based, Rhizopus oryzae; conditions: ½× MIC50, 48 h
Description: Alterations of R. oryzae cells caused by alexidine, MMV1580844, MMV642550 and MMV019724 were analyzed using fluorescent staining. Chitin, nucleic acid, oxidative stress, mitochondrial membrane potential and neutral lipid content were evaluated using calcofluor white (Sigma-Aldrich, MO, USA), Sytox Blue (ThermoFisher, Waltham, MA, USA), 2′,7′–dichlorofluorescein diacetate (DCFH-DA) (Sigma-Aldrich, MO, USA), JC-1 probe (ThermoFisher, Waltham, MA, USA) and Nile Red (Sigma-Aldrich, MO, USA), respectively. […] Cells were stained with 25 μg/mL of calcofluor white, 20 μM of Sytox Blue, 50 μg/mL of DCFH-DA, 10 μg/mL of JC-1 or 20 μg/mL of Nile Red, all of them for 1 h at 37 °C in the dark. Samples were washed three times to remove residual dye and suspended in PBS. Fluorescence intensity was measured using the SpectraMax 340 microplate reader (Molecular Devices, San José, CA, USA) under the following conditions: calcofluor white at 350 nm (excitation) and 432 nm (emission); Sytox Blue at 444 nm (excitation) and 480 nm (emission); DCFH-DA at 492 nm (excitation) and 517 nm (emission); JC-1 at 475 nm (excitation) and 529 nm (green fluorescence) or 590 nm (red fluorescence) for the calculation of the red/green fluorescence intensity; and Nile Red at 550 nm (excitation) and 635 nm (emission).

R. oryzae UCP1295 [5] = test: Antifungal drug synergy assay, checkerboard method (FICI); format: cell-based, Rhizopus oryzae; conditions: Rhizopus arrhizus, UCP1295, 48 h; drug alone; read-out: MIC50 Alone
Description: (§3) Synergistic interactions were evaluated using the checkerboard method according to EUCAST guidelines (EUCAST 2008). R. oryzae conidia (2 × 10^5/mL) were grown in 96-well plates containing supplemented RPMI in the presence of the following selected compounds: […] An inhibition of at least 50% was defined as the cut-off for minimum inhibitory concentration (MIC). Interactions were determined by the fractional inhibitory concentration index (FICI), which was calculated using the following formula: (MIC combined/MIC drug A alone) + (MIC combined/MIC drug B alone). […] The Bliss independence model calculation was performed according to […] colleagues and Zhao and colleagues. The following formula was used to assess drug interaction: […] The results were classified as follows: synergistic effect when Eobs > Eexp; indifference when Eobs = Eexp; antagonistic effect when Eobs < Eexp.

R. oryzae [6] = test: Antifungal drug synergy assay, Bliss independence model; format: cell-based, Rhizopus oryzae; design: key to Interaction: S, synergistic interaction; A, antagonist interaction; Efficacy of Combined Drugs, E obs / Efficacy of Combined Drugs, E exp: concentration or dose not given beside the values; conditions: for Efficacy of Drugs Alone (% of Inhibition), MIC50: at MIC50; for Efficacy of Drugs Alone (% of Inhibition), ½ MIC50: at ½ MIC50; for ΔE: Eobs minus Eexp; for Efficacy of Combined Drugs, E exp: expected by Bliss calculation
Description: as §3

[7] = Table S1, mean of the four values, read-out: % of growth inhibition, Mean
[8] = optical density 600 nm, read-out: Growth Inhibition
[9] = preformed biofilm, 24 h treatment

SMILES	inhibition at 5 µM (R. oryzae UCP1295 [1]; [7]) [%]	inhibition at 5 µM (R. oryzae UCP1295 [1]; [8]) [%]	Viability Inhibition (XTT) (R. oryzae UCP1295 [1]) [%]	MIC50 (R. oryzae [2]) [µM]	MFC (R. oryzae [2]) [µM]	MIC50 (R. microsporus) [µM]	MFC (R. microsporus) [µM]	MIC50 (R. stolonifer) [µM]	MFC (R. stolonifer) [µM]	mitochondrial membrane potential (JC-1) (R. oryzae cells)	MIC (R. oryzae UCP1295 [5]) [µM]	Efficacy of Drugs Alone (% of Inhibition), MIC50 (R. oryzae [6])	Efficacy of Drugs Alone (% of Inhibition), ½ MIC50 (R. oryzae [6])	Efficacy of Combined Drugs, E obs (R. oryzae [6]; combined with Amphotericin B) [%]	Interaction (R. oryzae [6]; combined with Amphotericin B)	ΔE (R. oryzae [6]; combined with Amphotericin B) [%]	Efficacy of Combined Drugs, E exp (R. oryzae [6]; combined with Amphotericin B) [%]	Efficacy of Combined Drugs, E obs (R. oryzae [6]; combined with Posaconazole) [%]	Interaction (R. oryzae [6]; combined with Posaconazole)	ΔE (R. oryzae [6]; combined with Posaconazole) [%]	also measured
Oc1c(C(Nc2nc3ccccc3s2)c2ccc(OC(F)F)cc2)ccc2cccnc12 (stereo not drawn) [MMV019724]	69.6	70	77	0.63 (≈ 0.283 µg/mL)	> 20	1.25 (≈ 0.562 µg/mL)	> 20	1.25 (≈ 0.562 µg/mL)	> 20	mitochondrial alterations	0.63	62.0 % of Inhibition	32.5 % of Inhibition	74.8	A	−7.3	82.1	58.0	A	−5.6	Selectivity Index (SI), Planktonic Cell (R. oryzae [2]): >79.4; Selectivity Index (SI), Planktonic Cell (R. microsporus): >40; Selectivity Index (SI), Planktonic Cell (R. stolonifer): >40; Selectivity Index (SI), Preformed Biofilm [3]: >40; Selectivity Index (SI), Preformed Biofilm [4]: >40; chitin content (calcofluor white) (R. oryzae cells): lower levels; neutral lipids (Nile Red) (R. oryzae cells): lower levels; Efficacy of Combined Drugs, E exp (R. oryzae [6]; combined with Posaconazole): 63.6%
CCCCC(CC)CNC(=N)NC(=N)NCCCCCCNC(=N)NC(=N)NCC(CC)CCCC (stereo not drawn) [MMV396785, Alexidine, reference compound]	70.1	70	89	1.25 (≈ 0.636 µg/mL)	10 (≈ 5.09 µg/mL)	1.25 (≈ 0.636 µg/mL)	1.25 (≈ 0.636 µg/mL)	0.63 (≈ 0.321 µg/mL)	10 (≈ 5.09 µg/mL)	did not affect	1.25	67.6 % of Inhibition	21.5 % of Inhibition	85.9	S	1.7	84.2	91.9	A	−4.7	Viability Inhibition (XTT) (R. oryzae UCP1295 [1]; listed as alexidine): about 89%; Selectivity Index (SI), Planktonic Cell (R. oryzae [2]; listed as Alexidina MMV396785): >40; Selectivity Index (SI), Planktonic Cell (R. microsporus; listed as Alexidina MMV396785): >40; Selectivity Index (SI), Planktonic Cell (R. stolonifer; listed as Alexidina MMV396785): >79.4; Selectivity Index (SI), Preformed Biofilm ([3]; listed as Alexidina MMV396785): >20; concentration giving significant decrease in biofilm parameters [3, 9]: 2 × MIC; Selectivity Index (SI), Preformed Biofilm ([4]; listed as Alexidina MMV396785): >20; concentration giving significant decrease in biofilm parameters [4, 9]: 4 × MIC; DNA content (Sytox blue) (R. oryzae cells): reduction; chitin content (calcofluor white) (R. oryzae cells): reduction; neutral lipids (Nile Red) (R. oryzae cells): reduction; Efficacy of Combined Drugs, E exp (R. oryzae [6]; combined with Posaconazole): 96.6%
CCc1nc(N)nc(N)c1C#CC(C)c1cc(OC)cc(-c2ccncc2)c1 (stereo not drawn) [MMV1580844]	70.2	71	88	0.08 (≈ 0.0299 µg/mL)	> 20	0.08 (≈ 0.0299 µg/mL)	> 20	0.08 (≈ 0.0299 µg/mL)	> 20	depolarization of mitochondrial membranes	0.08	63.5 % of Inhibition	12.6 % of Inhibition	60.5	S	2.3	58.2	60.2	A	−17.4	Selectivity Index (SI), Planktonic Cell (R. oryzae [2]): >625; Selectivity Index (SI), Planktonic Cell (R. microsporus): >625; Selectivity Index (SI), Planktonic Cell (R. stolonifer): >625; Selectivity Index (SI), Preformed Biofilm [3]: >156.3; Selectivity Index (SI), Preformed Biofilm [4]: >312.5; oxidative stress, ROS (DCFH-DA) (R. oryzae cells): induced oxidative stress; Efficacy of Combined Drugs, E exp (R. oryzae [6]; combined with Posaconazole): 77.6%
